According to the kinase profiling compilation of Christmann-Franck et al. (2016):

Assays:
Test in all cases: radiometric filter-binding kinase assay, Kinaseprofiler
RET (human) = RET (human) (UniProt P07949); details: ATP 70 µM
MELK (human) = MELK (human) (UniProt Q14680); details: ATP 45 µM
DAPK2 (human) = DAPK2 (human) (UniProt Q9UIK4); details: ATP 10 µM
BRSK1 (human) = BRSK1 (human) (UniProt Q8TDC3); details: ATP 200 µM
PRKCD (human) = PRKCD (human) (UniProt Q05655); details: ATP 15 µM
MAPK13 (human) = MAPK13 (human) (UniProt O15264); details: ATP 15 µM
Chain of MAPK13 (human) (O15264 whole entry, looked up): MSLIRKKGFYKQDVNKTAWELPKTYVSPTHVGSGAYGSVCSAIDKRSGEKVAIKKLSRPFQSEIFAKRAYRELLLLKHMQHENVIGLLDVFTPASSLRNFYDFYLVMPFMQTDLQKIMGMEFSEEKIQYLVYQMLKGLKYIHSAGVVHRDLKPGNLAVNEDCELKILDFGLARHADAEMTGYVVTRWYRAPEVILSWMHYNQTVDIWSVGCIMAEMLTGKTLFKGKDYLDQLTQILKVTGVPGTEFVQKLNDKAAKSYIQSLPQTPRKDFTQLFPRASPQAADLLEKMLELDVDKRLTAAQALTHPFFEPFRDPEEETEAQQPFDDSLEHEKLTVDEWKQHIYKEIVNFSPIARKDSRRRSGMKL

STK33 (human) = STK33 (human) (UniProt Q9BYT3); details: ATP 155 µM
Chain of STK33 (human) (Q9BYT3 whole entry, looked up): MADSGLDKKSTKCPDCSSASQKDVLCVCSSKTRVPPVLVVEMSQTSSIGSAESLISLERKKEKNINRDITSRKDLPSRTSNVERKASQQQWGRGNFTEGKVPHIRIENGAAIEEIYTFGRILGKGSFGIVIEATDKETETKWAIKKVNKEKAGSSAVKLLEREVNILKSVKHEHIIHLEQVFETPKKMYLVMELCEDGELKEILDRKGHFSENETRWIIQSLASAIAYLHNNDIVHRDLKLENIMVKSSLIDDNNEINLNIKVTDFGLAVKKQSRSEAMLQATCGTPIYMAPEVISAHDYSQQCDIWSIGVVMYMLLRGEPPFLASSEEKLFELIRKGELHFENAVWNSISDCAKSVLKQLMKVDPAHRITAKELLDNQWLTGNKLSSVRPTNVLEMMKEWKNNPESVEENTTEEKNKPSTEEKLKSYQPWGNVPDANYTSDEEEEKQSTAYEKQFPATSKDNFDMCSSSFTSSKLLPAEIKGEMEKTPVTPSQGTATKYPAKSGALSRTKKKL

[1] = target: JAK2 JH1 catalytic (human) (UniProt O60674); details: ATP 45 µM
YES1 (human) = YES1 (human) (UniProt P07947); details: ATP 45 µM
FGFR3 (human) = FGFR3 (human) (UniProt P22607); details: ATP 15 µM
Chain of FGFR3 (human) (P22607 whole entry, looked up): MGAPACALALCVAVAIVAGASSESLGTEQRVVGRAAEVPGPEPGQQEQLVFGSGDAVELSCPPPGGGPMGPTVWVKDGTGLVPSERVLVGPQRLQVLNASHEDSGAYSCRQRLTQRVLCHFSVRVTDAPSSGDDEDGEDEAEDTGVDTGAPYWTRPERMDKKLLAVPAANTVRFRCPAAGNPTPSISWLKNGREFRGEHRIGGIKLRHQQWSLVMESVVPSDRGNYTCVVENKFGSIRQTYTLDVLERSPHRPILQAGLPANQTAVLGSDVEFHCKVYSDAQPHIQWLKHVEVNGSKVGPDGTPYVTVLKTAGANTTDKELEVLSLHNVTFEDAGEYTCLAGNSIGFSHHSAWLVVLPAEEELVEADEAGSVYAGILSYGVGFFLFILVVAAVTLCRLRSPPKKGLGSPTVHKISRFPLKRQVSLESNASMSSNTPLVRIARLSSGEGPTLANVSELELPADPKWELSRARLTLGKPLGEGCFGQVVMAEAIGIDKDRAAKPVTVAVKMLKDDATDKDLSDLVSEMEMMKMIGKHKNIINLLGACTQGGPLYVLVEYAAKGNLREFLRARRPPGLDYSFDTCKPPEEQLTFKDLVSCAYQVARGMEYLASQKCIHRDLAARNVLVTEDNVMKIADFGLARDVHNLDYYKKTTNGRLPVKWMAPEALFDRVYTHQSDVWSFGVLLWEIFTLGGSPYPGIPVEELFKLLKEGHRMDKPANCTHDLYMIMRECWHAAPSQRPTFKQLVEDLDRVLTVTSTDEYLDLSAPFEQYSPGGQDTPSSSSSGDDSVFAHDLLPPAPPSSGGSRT

KDR (human) = KDR (human) (UniProt P35968); details: ATP 90 µM
STK17A (human) = STK17A (human) (UniProt Q9UEE5); details: ATP 10 µM
GCK (human) = GCK (human) (UniProt Q12851); details: ATP 200 µM
CHEK1 (human) = CHEK1 (human) (UniProt O14757); details: ATP 90 µM
Chain of CHEK1 (human) (O14757 whole entry, looked up): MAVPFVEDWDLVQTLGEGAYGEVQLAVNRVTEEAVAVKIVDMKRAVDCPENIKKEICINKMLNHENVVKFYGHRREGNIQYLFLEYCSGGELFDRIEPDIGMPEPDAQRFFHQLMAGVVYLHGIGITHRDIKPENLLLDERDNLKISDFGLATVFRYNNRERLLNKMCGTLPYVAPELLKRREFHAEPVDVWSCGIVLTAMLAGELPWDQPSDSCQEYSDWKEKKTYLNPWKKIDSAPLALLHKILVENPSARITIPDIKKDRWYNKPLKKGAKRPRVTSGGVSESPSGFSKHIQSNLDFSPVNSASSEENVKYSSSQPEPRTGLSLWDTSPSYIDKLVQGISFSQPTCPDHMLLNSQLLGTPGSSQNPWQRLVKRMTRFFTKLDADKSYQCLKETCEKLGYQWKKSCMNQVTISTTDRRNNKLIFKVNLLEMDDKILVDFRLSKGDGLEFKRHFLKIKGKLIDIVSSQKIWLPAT

SRPK1 (human) = SRPK1 (human) (UniProt Q96SB4); details: ATP 10 µM
KIT (human) = KIT (human) (UniProt P10721); details: ATP 200 µM
[2] = system: TEK (human), Q02763 [Q939H/Q940H]; details: ATP 200 µM
SIK1 (human) = SIK1 (human) (UniProt P57059); details: ATP 45 µM
FLT3 (human) = FLT3 (human) (UniProt P36888); details: ATP 200 µM
RIPK2 (human) = RIPK2 (human) (UniProt O43353); details: ATP 120 µM
[3] = target: PRKAA2 PRKAB1 PRKAG1 (human) (UniProt P54619+P54646+Q9Y478); details: ATP 45 µM
CDK2 CCNE1 (human) = CDK2 CCNE1 (human) (UniProt P24941+P24864); details: ATP 120 µM
VRK2 (human) = VRK2 (human) (UniProt Q86Y07); details: ATP 70 µM
FES (human) = FES (human) (UniProt P07332); details: ATP 45 µM
CAMK4 (human) = CAMK4 (human) (UniProt Q16566); details: ATP 10 µM
Chain of CAMK4 (human) (Q16566 whole entry, looked up): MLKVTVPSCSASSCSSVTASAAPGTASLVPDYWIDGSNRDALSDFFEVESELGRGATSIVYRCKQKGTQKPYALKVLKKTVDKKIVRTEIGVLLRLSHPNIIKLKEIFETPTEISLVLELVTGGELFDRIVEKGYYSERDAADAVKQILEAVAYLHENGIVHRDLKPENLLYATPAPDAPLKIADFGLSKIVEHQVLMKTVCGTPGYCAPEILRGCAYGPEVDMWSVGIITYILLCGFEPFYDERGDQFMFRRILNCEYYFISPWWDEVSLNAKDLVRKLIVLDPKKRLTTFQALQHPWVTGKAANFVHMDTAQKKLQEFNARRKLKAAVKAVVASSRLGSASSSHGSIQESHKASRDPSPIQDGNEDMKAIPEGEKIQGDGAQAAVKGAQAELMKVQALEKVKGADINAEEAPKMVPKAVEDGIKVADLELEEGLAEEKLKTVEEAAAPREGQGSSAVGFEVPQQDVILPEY

RPS6KA1 KD1 KD2 (human) = RPS6KA1 KD1 KD2 (human) (UniProt Q15418); details: ATP 45 µM
Chain of RPS6KA1 KD1 KD2 (human) (Q15418 whole entry, looked up): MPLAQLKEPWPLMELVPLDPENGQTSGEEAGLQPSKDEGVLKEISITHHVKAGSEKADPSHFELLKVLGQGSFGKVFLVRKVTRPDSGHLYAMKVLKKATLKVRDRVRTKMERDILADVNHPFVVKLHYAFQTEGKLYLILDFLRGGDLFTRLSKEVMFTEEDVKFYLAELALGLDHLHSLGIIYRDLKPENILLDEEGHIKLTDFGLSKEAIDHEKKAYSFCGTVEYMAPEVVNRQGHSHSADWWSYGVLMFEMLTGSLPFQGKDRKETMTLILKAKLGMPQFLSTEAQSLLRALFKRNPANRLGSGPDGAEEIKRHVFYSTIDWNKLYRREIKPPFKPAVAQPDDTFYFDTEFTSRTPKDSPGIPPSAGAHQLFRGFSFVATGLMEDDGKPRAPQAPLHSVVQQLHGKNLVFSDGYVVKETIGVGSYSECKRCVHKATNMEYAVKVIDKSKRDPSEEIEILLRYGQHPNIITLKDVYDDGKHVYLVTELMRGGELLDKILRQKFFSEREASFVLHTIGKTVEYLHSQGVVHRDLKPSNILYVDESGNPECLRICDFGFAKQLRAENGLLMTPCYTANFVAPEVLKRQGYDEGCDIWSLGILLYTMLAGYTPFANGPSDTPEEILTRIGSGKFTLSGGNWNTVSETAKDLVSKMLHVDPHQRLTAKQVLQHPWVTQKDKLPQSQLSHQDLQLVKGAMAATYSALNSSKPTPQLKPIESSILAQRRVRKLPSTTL

ALK (human) = ALK (human) (UniProt Q9UM73); details: ATP 200 µM
WNK3 (human) = WNK3 (human) (UniProt Q9BYP7); details: ATP 200 µM
ULK3 (human) = ULK3 (human) (UniProt Q6PHR2); details: ATP 10 µM
PTK6 (human) = PTK6 (human) (UniProt Q13882); details: ATP 15 µM
PDGFRB (human) = PDGFRB (human) (UniProt P09619); details: ATP 200 µM
TBK1 (human) = TBK1 (human) (UniProt Q9UHD2); details: ATP 155 µM
BMX (human) = BMX (human) (UniProt P51813); details: ATP 45 µM

Chain of BRSK1 (human) (Q8TDC3 whole entry, looked up): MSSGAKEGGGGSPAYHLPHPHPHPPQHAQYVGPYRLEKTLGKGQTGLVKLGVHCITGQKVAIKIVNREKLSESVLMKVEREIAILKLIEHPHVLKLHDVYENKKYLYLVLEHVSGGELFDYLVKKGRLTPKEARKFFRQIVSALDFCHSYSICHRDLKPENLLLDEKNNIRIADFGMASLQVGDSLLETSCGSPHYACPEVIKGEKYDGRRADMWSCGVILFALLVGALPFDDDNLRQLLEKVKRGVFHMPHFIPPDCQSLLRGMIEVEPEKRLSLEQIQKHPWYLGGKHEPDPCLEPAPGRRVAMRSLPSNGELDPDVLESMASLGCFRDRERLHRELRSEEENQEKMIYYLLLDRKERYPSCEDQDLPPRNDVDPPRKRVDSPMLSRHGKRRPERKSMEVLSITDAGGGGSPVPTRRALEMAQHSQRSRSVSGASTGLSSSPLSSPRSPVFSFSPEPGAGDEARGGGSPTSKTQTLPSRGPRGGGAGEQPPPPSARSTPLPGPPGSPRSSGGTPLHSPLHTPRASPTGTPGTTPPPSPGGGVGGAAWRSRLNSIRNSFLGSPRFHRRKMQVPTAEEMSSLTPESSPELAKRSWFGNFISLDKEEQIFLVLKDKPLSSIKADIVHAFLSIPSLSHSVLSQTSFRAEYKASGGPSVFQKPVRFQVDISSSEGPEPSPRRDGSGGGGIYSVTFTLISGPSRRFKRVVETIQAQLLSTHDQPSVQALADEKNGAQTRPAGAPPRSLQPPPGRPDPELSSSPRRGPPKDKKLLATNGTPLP
Chain of PRKCD (human) (Q05655 whole entry, looked up): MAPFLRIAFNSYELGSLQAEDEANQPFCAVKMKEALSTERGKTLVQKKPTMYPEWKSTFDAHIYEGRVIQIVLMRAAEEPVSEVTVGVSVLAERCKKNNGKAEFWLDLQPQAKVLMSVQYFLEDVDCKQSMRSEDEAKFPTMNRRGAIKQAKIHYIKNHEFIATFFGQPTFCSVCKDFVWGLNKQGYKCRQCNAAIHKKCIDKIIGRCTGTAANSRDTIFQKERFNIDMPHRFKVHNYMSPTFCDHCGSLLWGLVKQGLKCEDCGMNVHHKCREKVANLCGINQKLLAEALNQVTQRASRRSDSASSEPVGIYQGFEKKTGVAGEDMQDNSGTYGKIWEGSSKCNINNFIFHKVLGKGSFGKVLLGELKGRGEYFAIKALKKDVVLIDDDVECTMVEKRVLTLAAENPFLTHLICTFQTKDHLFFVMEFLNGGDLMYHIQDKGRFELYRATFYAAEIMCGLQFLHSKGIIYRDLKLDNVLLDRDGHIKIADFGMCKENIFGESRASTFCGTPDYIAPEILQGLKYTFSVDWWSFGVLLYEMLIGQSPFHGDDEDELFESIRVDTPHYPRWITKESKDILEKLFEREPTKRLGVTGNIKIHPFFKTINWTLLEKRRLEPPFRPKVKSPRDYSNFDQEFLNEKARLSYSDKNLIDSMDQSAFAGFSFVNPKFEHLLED

O=C1c2ccccc2-c2n[nH]c3cccc1c23 showed a residual activity (RET (human); compound 1.0 µM) of 43%, a residual activity (RET (human); compound 10.0 µM) of 11% and a residual activity (MELK (human); compound 1.0 µM) of 13%. It also gave a residual activity (MELK (human); compound 10.0 µM) of 0%, a residual activity (DAPK2 (human); compound 1.0 µM) of 87% and a residual activity (DAPK2 (human); compound 10.0 µM) of 43%. It also gave a residual activity (BRSK1 (human); compound 1.0 µM) of 38%, a residual activity (BRSK1 (human); compound 10.0 µM) of 29% and a residual activity (PRKCD (human); compound 1.0 µM) of 99%. The residual activity (PRKCD (human); compound 10.0 µM) was 71%, the residual activity (MAPK13 (human); compound 1.0 µM) was 96% and the residual activity (MAPK13 (human); compound 10.0 µM) was 73%. For the same compound, the residual activity (STK33 (human); compound 1.0 µM) was 61%, the residual activity (STK33 (human); compound 10.0 µM) was 16% and the residual activity ([1]; compound 1.0 µM) was 58%. For the same compound, the residual activity ([1]; compound 10.0 µM) was 11%, the residual activity (YES1 (human); compound 1.0 µM) was 98% and the residual activity (YES1 (human); compound 10.0 µM) was 51%. The residual activity (FGFR3 (human); compound 1.0 µM) was 72%, the residual activity (FGFR3 (human); compound 10.0 µM) was 40% and the residual activity (KDR (human); compound 1.0 µM) was 17%. The residual activity (KDR (human); compound 10.0 µM) was 3%, the residual activity (STK17A (human); compound 1.0 µM) was 6% and the residual activity (STK17A (human); compound 10.0 µM) was 2%. The residual activity (GCK (human); compound 1.0 µM) was 16%, the residual activity (GCK (human); compound 10.0 µM) was 2% and the residual activity (CHEK1 (human); compound 1.0 µM) was 72%. It also gave a residual activity (CHEK1 (human); compound 10.0 µM) of 32%, a residual activity (SRPK1 (human); compound 1.0 µM) of 98% and a residual activity (SRPK1 (human); compound 10.0 µM) of 87%. It also gave a residual activity (KIT (human); compound 1.0 µM) of 91%, a residual activity (KIT (human); compound 10.0 µM) of 30% and a residual activity ([2]; compound 1.0 µM) of 95%. The residual activity ([2]; compound 10.0 µM) was 63%, the residual activity (SIK1 (human); compound 1.0 µM) was 96% and the residual activity (SIK1 (human); compound 10.0 µM) was 48%. For the same compound, the residual activity (FLT3 (human); compound 1.0 µM) was 6%, the residual activity (FLT3 (human); compound 10.0 µM) was 1% and the residual activity (RIPK2 (human); compound 1.0 µM) was 70%. The residual activity (RIPK2 (human); compound 10.0 µM) was 52%, the residual activity ([3]; compound 1.0 µM) was 69% and the residual activity ([3]; compound 10.0 µM) was 28%. The residual activity (CDK2 CCNE1 (human); compound 1.0 µM) was 8%, the residual activity (CDK2 CCNE1 (human); compound 10.0 µM) was 3% and the residual activity (VRK2 (human); compound 1.0 µM) was 78%. For the same compound, the residual activity (VRK2 (human); compound 10.0 µM) was 36%, the residual activity (FES (human); compound 1.0 µM) was 34% and the residual activity (FES (human); compound 10.0 µM) was 6%. It also gave a residual activity (CAMK4 (human); compound 1.0 µM) of 73%, a residual activity (CAMK4 (human); compound 10.0 µM) of 24% and a residual activity (RPS6KA1 KD1 KD2 (human); compound 1.0 µM) of 86%. The residual activity (RPS6KA1 KD1 KD2 (human); compound 10.0 µM) was 64%, the residual activity (ALK (human); compound 1.0 µM) was 61% and the residual activity (ALK (human); compound 10.0 µM) was 29%. For the same compound, the residual activity (WNK3 (human); compound 1.0 µM) was 87%, the residual activity (WNK3 (human); compound 10.0 µM) was 77% and the residual activity (ULK3 (human); compound 1.0 µM) was 73%. The residual activity (ULK3 (human); compound 10.0 µM) was 43%, the residual activity (PTK6 (human); compound 1.0 µM) was 95% and the residual activity (PTK6 (human); compound 10.0 µM) was 95%. It also gave a residual activity (PDGFRB (human); compound 1.0 µM) of 99%, a residual activity (PDGFRB (human); compound 10.0 µM) of 96% and a residual activity (TBK1 (human); compound 1.0 µM) of 35%. It also gave a residual activity (TBK1 (human); compound 10.0 µM) of 11%, a residual activity (BMX (human); compound 1.0 µM) of 59% and a residual activity (BMX (human); compound 10.0 µM) of 18%.
